The source of these data is patent US12162888B2, “Carboxamides as ubiquitin-specific protease inhibitors” (Valo Early Discovery, Inc., priority 2018, dated 2024).

The target of the test is T1, USP25 (USP25-His6, Boston Biochem E-546) (Homo sapiens, UniProt Q9UHP3).
T1 construct: His6 (C); purchased Boston Biochem E-546
T1 sequence (Q9UHP3 1-1055): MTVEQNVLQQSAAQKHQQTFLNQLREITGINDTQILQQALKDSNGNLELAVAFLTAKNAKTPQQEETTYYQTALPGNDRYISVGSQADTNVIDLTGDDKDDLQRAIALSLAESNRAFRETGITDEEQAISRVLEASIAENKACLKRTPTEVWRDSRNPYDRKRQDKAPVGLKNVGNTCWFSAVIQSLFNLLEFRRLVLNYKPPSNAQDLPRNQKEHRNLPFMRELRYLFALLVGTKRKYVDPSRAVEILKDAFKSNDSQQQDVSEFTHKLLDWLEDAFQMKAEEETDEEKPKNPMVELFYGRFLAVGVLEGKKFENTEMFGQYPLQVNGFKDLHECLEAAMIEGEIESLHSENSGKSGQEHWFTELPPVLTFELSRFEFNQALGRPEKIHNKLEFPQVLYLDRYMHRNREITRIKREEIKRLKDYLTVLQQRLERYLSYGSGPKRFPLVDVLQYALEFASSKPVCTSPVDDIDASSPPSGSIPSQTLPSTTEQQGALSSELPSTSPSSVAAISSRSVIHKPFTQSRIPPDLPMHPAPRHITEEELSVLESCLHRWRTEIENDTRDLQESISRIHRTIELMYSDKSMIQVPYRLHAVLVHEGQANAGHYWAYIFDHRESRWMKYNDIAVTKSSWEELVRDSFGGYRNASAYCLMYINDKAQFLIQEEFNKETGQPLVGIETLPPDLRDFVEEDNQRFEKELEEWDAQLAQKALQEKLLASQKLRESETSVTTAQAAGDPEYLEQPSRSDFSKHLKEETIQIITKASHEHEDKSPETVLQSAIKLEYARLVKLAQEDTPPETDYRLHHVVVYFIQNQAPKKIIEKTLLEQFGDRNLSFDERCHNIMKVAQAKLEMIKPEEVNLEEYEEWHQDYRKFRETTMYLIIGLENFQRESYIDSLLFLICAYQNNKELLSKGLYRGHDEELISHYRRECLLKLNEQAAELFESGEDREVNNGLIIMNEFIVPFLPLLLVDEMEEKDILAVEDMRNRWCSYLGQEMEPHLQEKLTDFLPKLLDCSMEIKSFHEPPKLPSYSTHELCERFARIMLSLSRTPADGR
The test can be described thus: Ubiquitin-Rhodamine 110 Assay for USP25 Activity, Example A-3. It is filed as biochemical. Conditions: Ubiquitin-Rhodamine 110 assay, Example A-3; read-out: USP25 A-3 IC50 range. The method, then: Example A-3: Biochemical Assay: Ubiquitin-Rhodamine 110 Assay for USP25 Activity
The assay was performed in a final volume of 9 μL in assay buffer containing 20 mM Tris-HCl (pH 8.0, (1M Tris-HCl, pH 8.0 solution; Corning 46-031-CM)), 3 mM BME (2-Mercaptoethanol; Sigma 63689-25ML-F), 0.03% BGG (0.22 μM filtered, Sigma, G7516-25G), and 0.01% Triton X-100 (Sigma, T9284-10L). Nanoliter quantities of 10-point, 3-fold serial dilution in DMSO was pre-dispensed into 1536 assay plates (Corning, #3724BC) for a final test concentration of 25 μM to 1.3 nM, top to lowest dose, respectively. Enzyme USP25, construct USP25-His6, (Boston Biochem E-546). Concentration and incubation times were optimized for the maximal signal-to-background while maintaining initial velocity conditions at a fixed substrate concentration. The final concentration of the enzyme in the assay was […]. Final substrate (Ub-Rh110; Ubiquitin-Rhodamine 110, R&D Systems #U-555) concentration was 25 nM with [Ub-Rh110]<<Km. 3 μL of 2× enzyme was added to assay plates (pre-stamped with compound) preincubated with […] for 30 minutes and then 3 μL of 2× Ub-Rh110 was added to assay plates. Plates were incubated for 45 minutes at room temperature before addition of 3 μL of stop solution (final concentration of 10 mM citric acid (Sigma, 251275-500G)). Fluorescence was read on the Envision (Excitation at 485 nm and Emission at 535 nm; Perkin Elmer) or on the PheraSTAR (Excitation at 485 nm and Emission at 535 nm; BMG Labtech).
For assay formats Example A-1(a), A-1(b), and A-2, data were reported as percent inhibition compared with control wells based on the following equation: % inh=1−((FLU−AveLow)/(AveHigh−AveLow)) where FLU=measured Fluorescence, AveLow=average Fluorescence of no enzyme control (n=16), and AveHighh=average Fluorescence of DMSO control (n=16). IC50 values were determined by curve fitting of the standard 4 parameter logistic fitting algorithm included in the Activity Base software package: IDBS XE Designer Model 205. Data is fitted using the Levenburg Marquardt algorithm.
For orientation: IC50 means the concentration that gives 50% inhibition. On to `CO[C@]1(C)CN(c2ccc3c(n2)CC[C@H](NC(=O)c2sc4nc(C)ccc4c2N)C3)C[C@@H]1N` [Example 427, 3-amino-N-[(6S)-2-[(3R,4S)-4-amino-3-methoxy-3-methylpyrrolidin-1-yl]-5,6,7,8-tetrahydroquinolin-6-yl]-6-methylthieno[2,3-b]pyridine-2-carboxamide], for which the concentration for half-maximal inhibition (IC50) is 200 to 2000 nM. To `Cc1ccc2c(N)c(C(=O)N[C@H]3CCc4nc(N5CCN[C@@H](C(F)F)C5)ccc4C3)sc2n1` [Example 375, 3-amino-N-[(6S)-2-[(3R)-3-(difluoromethyl)piperazin-1-yl]-5,6,7,8-tetrahydroquinolin-6-yl]-6-methylthieno[2,3-b]pyridine-2-carboxamide] belongs greater than 2000 nM; to `Cc1ccc2c(N)c(C(=O)N[C@H]3CCc4nc(N5C[C@H]6CCN[C@@H](C5)C6(F)F)ccc4C3)sc2n1` [Example 368, 3-amino-N-[(6S)-2-[(1S,5R)-9,9-difluoro-2,7-diazabicyclo[3.3.1]nonan-7-yl]-5,6,7,8-tetrahydroquinolin-6-yl]-6-methylthieno[2,3-b]pyridine-2-carboxamide], 50 to 200 nM; to `CCn1ccc2cc(C(=O)N[C@H]3CCc4nc(N5C[C@@H](N)[C@H](C(F)(F)F)C5)ccc4C3)cnc21` [Example 422, N-[(6S)-2-[(3S,4R)-3-amino-4-(trifluoromethyl)pyrrolidin-1-yl]-5,6,7,8-tetrahydroquinolin-6-yl]-1-ethyl-1H-pyrrolo[2,3-b]pyridine-5-carboxamide], greater than 2000 nM.

`Cc1ccc2c(N)c(C(=O)N[C@@H]3COc4cc(N5C[C@@H]6CNC[C@H]6C5)ccc4C3)sc2n1` [Example 42, 3-amino-N-((S)-7-((3aS,6aS)-hexahydropyrrolo[3,4-c]pyrrol-2(1H)-yl)chroman-3-yl)-6-methylthieno[2,3-b]pyridine-2-carboxamide]: the 50% inhibitory concentration (IC50) was 200 to 2000 nM. Regarding `Cc1ccc2c(N)c(C(=O)N[C@H]3CCc4nc(N5CC6(C[C@H](N)CO6)C5)ccc4C3)sc2n1` [Example 399, 3-amino-N-[(6S)-2-[(7S)-7-amino-5-oxa-2-azaspiro[3.4]octan-2-yl]-5,6,7,8-tetrahydroquinolin-6-yl]-6-methylthieno[2,3-b]pyridine-2-carboxamide], the half-inhibitory concentration (IC50) lay in the range of 200 to 2000 nM. On to `Cc1ccc2c(N)c(C(=O)N[C@H]3CCc4nc(N5C[C@H](N)[C@]6(CCOC6)C5)ccc4C3)sc2n1` [Example 430, 3-amino-N-[(6S)-2-[(5S,9R)-9-amino-2-oxa-7-azaspiro[4.4]nonan-7-yl]-5,6,7,8-tetrahydroquinolin-6-yl]-6-methylthieno[2,3-b]pyridine-2-carboxamide], for which the concentration for half-maximal inhibition (IC50) was greater than 2000 nM. For the compound `Cc1ccc2c(N)c(C(=O)N[C@H]3CCc4nc(N5C[C@@H]6COC[C@]6(N)C5)ccc4C3)sc2n1` [Example 394, N-[(6S)-2-[(3aR,6aS)-3a-amino-hexahydro-1H-furo[3,4-c]pyrrol-5-yl]-5,6,7,8-tetrahydroquinolin-6-yl]-3-amino-6-methylthieno[2,3-b]pyridine-2-carboxamide], the IC50 is greater than 2000 nM. For `Cc1ccc2c(N)c(C(=O)N[C@H]3CCc4nc(N5CC[C@]6(C5)OCC[C@@H]6N)ccc4C3)sc2n1` [Example 406, 3-amino-N-[(6S)-2-[(4S,5R)-4-amino-1-oxa-7-azaspiro[4.4]nonan-7-yl]-5,6,7,8-tetrahydroquinolin-6-yl]-6-methylthieno[2,3-b]pyridine-2-carboxamide], the IC50 is greater than 2000 nM. In the case of `Cc1ccc2c(N)c(C(=O)N[C@H]3CCc4nc(N5CC[C@]6(C5)OCC[C@H]6N)ccc4C3)sc2n1` [Example 408, 3-amino-N-[(6S)-2-[(4R,5R)-4-amino-1-oxa-7-azaspiro[4.4]nonan-7-yl]-5,6,7,8-tetrahydroquinolin-6-yl]-6-methylthieno[2,3-b]pyridine-2-carboxamide], the half-maximal inhibitory concentration (IC50) is greater than 2000 nM.
